What was measured:
[1] = target: T1, 7-dehydrocholesterol reductase (Homo sapiens, UniProt Q9UBM7); test: Growth inhibition of MCF7 cells expressing ER and antiestrogen binding sites
T1 sequence (Q9UBM7 whole entry): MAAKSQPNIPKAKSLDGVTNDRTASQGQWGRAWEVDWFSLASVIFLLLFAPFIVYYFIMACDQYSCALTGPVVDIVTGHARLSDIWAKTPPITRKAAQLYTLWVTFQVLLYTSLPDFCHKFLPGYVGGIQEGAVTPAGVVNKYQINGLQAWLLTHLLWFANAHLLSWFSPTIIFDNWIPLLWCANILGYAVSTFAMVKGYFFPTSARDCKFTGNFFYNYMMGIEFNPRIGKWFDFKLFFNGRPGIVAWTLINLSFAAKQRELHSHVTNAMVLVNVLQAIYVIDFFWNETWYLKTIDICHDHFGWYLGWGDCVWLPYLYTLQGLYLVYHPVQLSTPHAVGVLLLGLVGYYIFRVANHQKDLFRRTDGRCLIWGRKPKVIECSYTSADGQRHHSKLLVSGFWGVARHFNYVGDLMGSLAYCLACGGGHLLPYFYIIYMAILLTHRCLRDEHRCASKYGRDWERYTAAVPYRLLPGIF

[2] = target: T1, 7-dehydrocholesterol reductase; test: Growth inhibition of multidrug resistant MCF7/Adr cells containing antiestrogen binding sites
[3] = target: T1, 7-dehydrocholesterol reductase; test: Growth inhibition of MDA-MB-435 cells containing antiestrogen binding sites
[4] = target: T1, 7-dehydrocholesterol reductase; test: Growth inhibition of MDA-MB-231 cells containing antiestrogen binding sites

Row | IC50 [1] [nM] | IC50 [2] [nM] | IC50 [3] [nM] | IC50 [4] [nM] | Compound
1 | 70 | 2000 | 50 | 80 | COc1cccc2c1C(=O)c1c(O)c3c(c(O)c1C2=O)C[C@@](O)(C(=O)CO)C[C@@H]3O[C@H]1C[C@H](NCNC(=O)c2ccccc2O)[C@H](O)[C@H](C)O1
2 | 30 | 60 | 40 | 30 | CC/C(=C(/c1ccc(O)cc1)c1ccc(OCCN(C)CCOCCOCCO/N=C/c2ccc(O)c(C(=O)NCN[C@H]3C[C@H](O[C@H]4C[C@](O)(C(=O)CO)Cc5c(O)c6c(c(O)c54)C(=O)c4c(OC)cccc4C6=O)O[C@@H](C)[C@H]3O)c2)cc1)c1ccccc1

From BindingDB's records for doi:10.1021/jm049496b (University of Colorado, 2004)
